Source: patent US20250361230A1, “LATS Inhibitors and Uses Thereof” (The USA, as Represented by the Secretary, Dept. of Heath …, priority 2022, published 2025)

Target: T1, LATS1 Kinase-NanoLuc fusion in HEK-293 cells (Homo sapiens, UniProt O95835)
T1 construct: host or cells: HEK-293
T1 sequence (O95835 1-1130): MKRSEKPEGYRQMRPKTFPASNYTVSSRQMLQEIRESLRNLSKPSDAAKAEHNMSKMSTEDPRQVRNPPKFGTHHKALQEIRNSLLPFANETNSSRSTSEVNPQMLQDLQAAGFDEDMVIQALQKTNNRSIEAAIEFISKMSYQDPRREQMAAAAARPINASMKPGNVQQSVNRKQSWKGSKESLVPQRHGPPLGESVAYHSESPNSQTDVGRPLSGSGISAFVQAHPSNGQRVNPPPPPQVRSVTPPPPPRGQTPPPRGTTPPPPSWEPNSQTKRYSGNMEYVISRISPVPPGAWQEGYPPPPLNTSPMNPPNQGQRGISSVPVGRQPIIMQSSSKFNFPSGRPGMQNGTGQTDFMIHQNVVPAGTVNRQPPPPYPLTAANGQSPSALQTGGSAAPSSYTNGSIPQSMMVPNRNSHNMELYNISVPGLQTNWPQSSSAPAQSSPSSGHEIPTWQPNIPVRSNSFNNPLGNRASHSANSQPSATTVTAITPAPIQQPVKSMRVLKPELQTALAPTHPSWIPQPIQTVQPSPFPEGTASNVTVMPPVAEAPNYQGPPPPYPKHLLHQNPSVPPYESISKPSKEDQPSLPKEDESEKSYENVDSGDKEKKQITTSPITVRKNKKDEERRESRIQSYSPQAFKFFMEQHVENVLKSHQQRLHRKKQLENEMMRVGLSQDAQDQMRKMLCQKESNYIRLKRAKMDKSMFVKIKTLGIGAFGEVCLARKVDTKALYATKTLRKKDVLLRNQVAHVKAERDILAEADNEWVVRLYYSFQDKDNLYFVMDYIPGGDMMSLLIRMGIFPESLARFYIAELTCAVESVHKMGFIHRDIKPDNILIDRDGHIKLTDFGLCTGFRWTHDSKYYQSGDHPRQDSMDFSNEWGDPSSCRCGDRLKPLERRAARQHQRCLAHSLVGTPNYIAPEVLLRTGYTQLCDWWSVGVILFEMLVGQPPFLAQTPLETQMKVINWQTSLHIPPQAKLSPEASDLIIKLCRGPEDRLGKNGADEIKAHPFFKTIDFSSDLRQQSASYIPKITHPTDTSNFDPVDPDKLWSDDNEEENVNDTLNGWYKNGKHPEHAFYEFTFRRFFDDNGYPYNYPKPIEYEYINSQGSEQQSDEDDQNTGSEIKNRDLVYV
Experiment: NanoBRET target engagement assay in transfected HEK-293 cells, LATS1
Type: cell-based
Details: Table 28, NanoBRET, HEK-293 cells; read-out: LATS1 (Cellular) IC50
From the text: The NanoBRET™ assay measures kinase engagement in real time in the context of the intact cell. The assay uses a Kinase-NanoLuc® fusion vector expressing a kinase protein to which a luciferase tag has been added, a cell-permeant fluorescent NanoBRET™ tracer, a NanoLuc® substrate, and an extracellular NanoLuc® inhibitor. Upon expression of the luciferase-tagged kinase, cells will produce a strong BRET signal only in the presence of the NanoBRET™ tracer. The extracellular NanoLuc® inhibitor ensures that the BRET signal observed emanates only from live cells. Because the BRET signal has tight distance constraints, addition of the test compound will decrease the BRET signal if the compound competes with the NanoBRET™ tracer for binding to the kinase domain. Under the appropriate tracer conditions established by the manufacturer, quantitative intracellular affinity and relative potency can then be determined using Mass Action model equations.
HEK-293 cells were purchased from ATCC. FuGENEHD Transfection Reagent, Kinase-NanoLuc® fusion plasmids, Transfection Carrier DNA, NanoBRET™ Tracers and dilution buffer, NanoBRET™ Nano-Glo Substrate, Extracellular NanoLuc® Inhibitor were obtained from Promega.
Assays were conducted following Promega assay protocol with some modifications as described further below. HEK-293 Cells were transiently transfected with Kinase-NanoLuc® Fusion Vector DNA by FuGENE HD Transfection Reagent. Test compounds were delivered into 384 well assay plate by Echo 550 (Labcyte Inc, Sunnyvale, CA). Transfected cells were harvested and mixed with NanoBRET™ Tracer Reagent and dispensed into 384 well plates and incubated at 37° C. in 5% CO2 cell culture incubator for 1 hour. The NanoBRET™ Nano-Glo Substrate plus Extracellular NanoLuc® Inhibitor Solution were added into the wells of the assay plate and incubated for 2-3 minutes at room temperature. The donor emission wavelength (460 nm) and acceptor emission wavelength (600 nm) were measured in the EnVision plate reader. The BRET Ratios were calculated. BRET Ratio=[(Acceptor sample÷Donor sample)−(Acceptor no-tracer control÷Donor no-tracer control)]. The IC50 values of compounds were calculated with Prism GraphPad program.
• 1. Transient Transfection of HEK-293 Cells NanoLuc® Fusion Vector DNA • 1). Cultivate HEK-293 cells (70-80% confluence) appropriately prior to assay. Trypsinize and collect HEK-293 cells. • 2). Prepare lipid: DNA complexes as follows: • a. Prepare a […] solution of DNA in Opti-MEM™ without serum that consists of the following ratios of carrier DNA and DNA encoding NanoLuc® fusion. 9.0 µg/mL of Transfection Carrier DNA, […] of NanoLuc® fusion vector DNA and 1 mL of Opti-MEM™ without phenol red. Mix thoroughly. • b. Add 30 μl of FuGENE HD Transfection Reagent into each milliliter of DNA mixture to form lipid: DNA complex. • c. Mix by inversion 10 times. • d. Incubate at ambient temperature for 20 minutes to allow complexes to form. • 3). In a sterile, conical tube, mix 1 part of lipid: DNA complex with 20 parts of HEK-293 cells in suspension. Mix gently by inversion 5 times. • 4). Dispense cells+lipid: DNA complex into a sterile tissue culture dish and incubate for 22-24 hours. • 2. Addition of Test Compounds (dry plate shooting): Each test compound is delivered from the compound source plate to the wells of 384-well white NBS plate by Echo 550. • 3. Preparation of Cells with NanoBRET™ Tracer Reagent • 1). Remove medium from dish with transfected HEK-293 cells via aspiration, trypsinize and allow cells to dissociate from the dish. • 2). Neutralize trypsin using medium containing serum and centrifuge at 200× g for 5 minutes to pellet the cells. Adjust the cell density to 2×10^5 cells/mL in Opti-MEM™ without phenol red. • 3). Prepare Complete 20× NanoBRET™ Tracer Reagent with Tracer Dilution Buffer. • 4). Dispense one part of Complete 20× NanoBRET™ Tracer Reagent to 20 parts of cells in the tube. Mix gently by inversion 10 times. • 5). […]

IC50 [nM] | Structure (SMILES)
550 | C[C@@H]1CNC[C@H](C)[C@@]1(O)c1ccc(-c2ccnc3[nH]cc(F)c23)cc1 [Compound 2, (3R,4s,5S)-4-(4-(3-fluoro-1H-pyrrolo[2,3-b]pyridin-4-yl)phenyl)-3,5-dimethylpiperidin-4-ol]
60 | C[C@@H]1CNC[C@H](C)[C@@]1(O)c1ccc(-c2ccnc3[nH]cc(F)c23)nc1 [Compound 8, (3S,4s,5R)-4-(6-(3-fluoro-1H-pyrrolo[2,3-b]pyridin-4-yl)pyridin-3-yl)-3,5-dimethylpiperidin-4-ol]
1450 | C[C@@H]1CNC[C@H](C)[C@@]1(O)c1c(F)cc(-c2ccnc3[nH]cc(F)c23)cc1F [Compound 13]
2130 | C[C@@H]1CNC[C@H](C)[C@@]1(O)c1ccc(-c2ccnc3[nH]cc(F)c23)cc1OC(F)(F)F [Compound 14, (3S,4s,5R)-4-(4-(3-fluoro-1H-pyrrolo[2,3-b]pyridin-4-yl)-2-(trifluoromethoxy)phenyl)-3,5-dimethylpiperidin-4-ol]
409 | C[C@@H]1CN(Cc2ccccn2)C[C@H](C)[C@@]1(O)c1c(F)cc(-c2ccnc3[nH]cc(F)c23)cc1F [Compound 17, (3S,4s,5R)-4-(2,6-difluoro-4-(3-fluoro-1H-pyrrolo[2,3-b]pyridin-4-yl)phenyl)-3,5-dimethyl-1-(pyridin-2-ylmethyl)piperidin-4-ol]
505 | C[C@@H]1CN(C)C[C@H](C)[C@@]1(O)c1cnc(-c2ccnc3[nH]cc(F)c23)cc1Cl [Compound 22, (3S,4s,5R)-4-(4-chloro-6-(3-fluoro-1H-pyrrolo[2,3-b]pyridin-4-yl)pyridin-3-yl)-1,3,5-trimethylpiperidin-4-ol]
127 | Cc1cc(-c2ccnc3[nH]cc(F)c23)ccc1[C@@]1(O)[C@H](C)CN(C2COC2)C[C@@H]1C [Compound 24, (3S,4s,5R)-4-(4-(3-fluoro-1H-pyrrolo[2,3-b]pyridin-4-yl)-2-methylphenyl)-3,5-dimethyl-1-(oxetan-3-yl)piperidin-4-ol]
86 | Cc1cc(-c2ccnc3[nH]cc(F)c23)ccc1[C@@]1(O)[C@H](C)CN(C(C)C)C[C@@H]1C [Compound 29, (3S,4s, 5R)-4-(4-(3-fluoro-1H-pyrrolo[2,3-b]pyridin-4-yl)-2-methylphenyl)-1-isopropyl-3,5-dimethylpiperidin-4-ol]
58.2 | Cc1cc(-c2ccnc3[nH]cc(F)c23)cc(F)c1C1(O)[C@H](C)CN(C2COC2)C[C@@H]1C (stereo partly drawn) [Compound 30, (3S,5R)-4-(2-fluoro-4-(3-fluoro-1H-pyrrolo[2,3-b]pyridin-4-yl)-6-methylphenyl)-3,5-dimethyl-1-(oxetan-3-yl)piperidin-4-ol]
1190 | C[C@@H]1CN(C2CCS(=O)(=O)CC2)C[C@H](C)C1(O)c1c(F)cc(-c2ccnc3[nH]cc(F)c23)cc1F (stereo partly drawn) [Compound 31, 4-((3S,5R)-4-(2,6-difluoro-4-(3-fluoro-1H-pyrrolo[2,3-b]pyridin-4-yl)phenyl)-4-hydroxy-3,5-dimethylpiperidin-1-yl)tetrahydro-2H-thiopyran 1,1-dioxide]
19000 | C[C@@H]1CN(C)C[C@H](C)[C@@]1(O)c1ccc(-c2ccnc3[nH]cc(F)c23)cc1 [Compound 39, (3R,4s,5S)-4-(4-(3-fluoro-1H-pyrrolo[2,3-b]pyridin-4-yl)phenyl)-1,3,5-trimethylpiperidin-4-ol]
115 | C[C@@H]1CN(C)C[C@H](C)[C@@]1(O)c1ccc(-c2ccnc3[nH]cc(F)c23)nc1 [Compound 41, (3R,4s,5S)-4-(6-(3-fluoro-1H-pyrrolo[2,3-b]pyridin-4-yl)pyridin-3-yl)-1,3,5-trimethylpiperidin-4-ol]
813 | C[C@@H]1CN(C2COC2)C[C@H](C)[C@@]1(O)c1c(F)cc(-c2ccnc3[nH]cc(F)c23)cc1F [Compound 45, (3S,4s,5R)-4-(2,6-difluoro-4-(3-fluoro-1H-pyrrolo[2,3-b]pyridin-4-yl)phenyl)-3, S-dimethyl-1-(oxetan-3-yl)piperidin-4-ol]
462 | C[C@@H]1CN(C2CCC2)C[C@H](C)[C@@]1(O)c1c(F)cc(-c2ccnc3[nH]cc(F)c23)cc1F [Compound 46, (3R,4s,5S)-1-cyclobutyl-4-(2,6-difluoro-4-(3-fluoro-1H-pyrrolo[2,3-b]pyridin-4-yl)phenyl)-3,5-dimethylpiperidin-4-ol]
12600 | Cc1cc(-c2ccnc3[nH]cc(F)c23)ncc1[C@@]1(O)[C@H](C)CN(C2CCC2)C[C@@H]1C [Compound 48, (3R,4s,5S)-1-cyclobutyl-4-(6-(3-fluoro-1H-pyrrolo[2,3-b]pyridin-4-yl)-4-methylpyridin-3-yl)-3,5-dimethylpiperidin-4-ol]
> 30000 | Cc1cc(-c2ccnc3[nH]cc(F)c23)ncc1[C@@]1(O)[C@H](C)CN(C2CCS(=O)(=O)CC2)C[C@@H]1C [Compound 51, 4-((3R,4s,5S)-4-(6-(3-fluoro-1H-pyrrolo[2,3-b]pyridin-4-yl)-4-methylpyridin-3-yl)-4-hydroxy-3,5-dimethylpiperidin-1-yl)tetrahydro-2H-thiopyran 1,1-dioxide]

Structure (SMILES) | IC50 [nM]
C[C@@H]1CNC[C@H](C)[C@@]1(O)c1ccc(-c2ccnc3[nH]cc(F)c23)cc1Cl [Compound 1, (3S,4S,5R)-4-(2-chloro-4-(3-fluoro-1H-pyrrolo[2,3-b]pyridin-4-yl)phenyl)-3,5-dimethylpiperidin-4-ol] | 203
C[C@@H]1CNC[C@H](C)[C@@]1(O)c1ccc(-c2ccnc3[nH]cc(F)c23)cc1F [Compound 7, (3S,4s,5R)-4-(2-fluoro-4-(3-fluoro-1H-pyrrolo[2,3-b]pyridin-4-yl)phenyl)-3,5-dimethyl piperidin-4-ol] | 247
Cc1cc(-c2ccnc3[nH]cc(F)c23)ccc1[C@@]1(O)[C@H](C)CNC[C@@H]1C [Compound 9, (3S,4s,5R)-4-(4-(3-fluoro-1H-pyrrolo[2,3-b]pyridin-4-yl)-2-methylphenyl)-3,5-dimethylpiperidin-4-ol] | 44.6
